Results: US20230405052A1, “PHARMACEUTICAL COMPOSITION FOR PREVENTING OR TREATING FIBROSIS, COMPRISING ISOLATED MITOCHONDRIA” (Paean Biotechnology Inc., priority 2020, published 2023)

Key:
Assay type in all cases: cell-based
[1] = system: human lung fibroblast Wi-38 cells; assay: Quantitative real-time PCR of fibrosis genes in TGF-β-treated Wi-38 fibroblasts; conditions: qRT-PCR, 10 μg mitochondria or 1 μM nintedanib, 18 hours after 6 hours TGF-β
Procedure: (§1) In order to analyze the anti-fibrotic activity of mitochondria, a cell-based analysis experiment was performed using a quantitative real-time polymerase chain reaction.
(§2) CCD8-Lu cells and Wi-38 cells, which are human lung-derived fibroblasts, were cultured in DMEM medium containing 10% FBS, respectively. The cells were inoculated into a 6 well plate at about 2×10^5 cells/well and cultured for 24 hours, and then depletion conditions were performed in DMEM medium without FBS for about 24 hours. After 24 hours, the cells were treated with TGF-β at a concentration of 2.5 ng/mL, and then fibrosis of the cells was induced for 6 hours. After 6 hours, the cells were washed twice with PBS to completely remove the remaining TGF-β. Next, the mitochondria isolated from HEK293, UC-MSC and BM-MSC cells in Preparation Example 1 were mixed in DMEM medium, and the cells were treated with the mitochondria and then further cultured for 18 hours (FIG. 1). […]
(§3) After 18 hours of mitochondria treatment, the culture solution was removed, and the cells were washed twice with a PBS buffer solution, and 0.5 mL of RNA extract (Trizol reagent, Thermo Fisher Scientific) was added directly and then stood at ambient temperature for 10 minutes. […] After drying, about 50 μl of purified RNAase-free distilled water was added, and the quantity and purity of the obtained RNA was measured using a spectrophotometer. […]

[2] = system: human lung fibroblast CCD8-Lu cells; assay: Western blotting of CTGF expression (FIG. 6); conditions: western blotting (FIG. 6), 5 μg mitochondria, 18 hours after 6 hours 2.5 ng/mL TGF-β
Procedure: In order to observe whether the expression of CTGF, a key gene for fibrosis, is regulated by mesenchymal stem cell-derived mitochondria, a cell-based analysis experiment was performed using a Western analysis method.
CCD8-Lu cells (FIG. 6A) and Wi-38 cells (FIG. 6B), which are human lung-derived fibroblasts, were cultured in DMEM medium containing 10% FBS. The cells were inoculated into a 6 well plate at about 2×10^5 cells/well and cultured for 24 hours, and then depletion conditions were performed in DMEM medium without FBS for about 24 hours.
After 24 hours, the cells were treated with TGF-β at a concentration of 2.5 ng/mL, and then fibrosis of the cells was induced for 6 hours. After 6 hours, the cells were washed twice with PBS to completely remove TGF-β. Next, in the same manner as in Preparation Example 1, the mitochondria isolated from UC-MSC and HEK293 cells were mixed in DMEM medium, and the cells were treated with the mitochondria and then further cultured for 18 hours (FIG. 3). […]
The separated supernatant was obtained and transferred to a new microtube, and then protein was quantified using the BCA analysis method. […]

[3] = system: human lung fibroblast CCD8-Lu cells; assay: Quantitative real-time PCR of fibrosis genes in TGF-β-treated CCD8-Lu fibroblasts; conditions: qRT-PCR, 10 μg mitochondria or 1 μM nintedanib, 18 hours after 6 hours TGF-β
Procedure: as §1
as §2, with “1). At this time, the negative control group was not treated with anything, the positive control group was treated with TGF-β alone at a concentration of 5 ng/mL, and the experimental groups were treated with 10 μg of mitochondria isolated from each cell, respectively.” for “1).”
as §3
Changes in the expression of the alpha actin smooth muscle (α-SMA) gene, a characteristic gene of myofibroblast, the CCN2 (or CTGF) gene, a characteristic gene of fibrosis, fibronectin, a characteristic gene of fibrosis, and the NOX-4 gene, a characteristic gene of fibrosis, were observed by quantitative real-time polymerase chain reaction. The GAPDH gene was quantified together to calibrate for differences in the expression.

[4] = system: human lung fibroblast CCD8-Lu cells; assay: Cell immunochemical staining of collagen 1A and fibronectin (FIG. 5); conditions: immunostaining (FIG. 5), 5 μg mitochondria or 1 mM pirfenidone, after 6 hours 2.5 ng/mL TGF-β
Procedure: In order to analyze the anti-fibrotic activity of stem cell-derived mitochondria, a cell-based analysis experiment was performed using a […].
CCD8-Lu cells, which are human lung-derived fibroblasts, were cultured in DMEM medium containing 10% FBS. Thereafter, the cells were inoculated into a 24 well plate at about 2×10^4 cells/well, cultured for 24 hours, and then reacted in DMEM medium without FBS for about 24 hours. After 24 hours, the cells were treated with TGF-β at a concentration of 2.5 ng/mL, and then fibrosis of the cells was induced for 6 hours. After 6 hours, the cells were washed twice with PBS to completely remove TGF-β. Next, the mitochondria isolated from umbilical cord blood mesenchymal stem cell UC-MSC, bone marrow mesenchymal stem cell BM-MSC, dedifferentiated stem cell iPSC and HEK293 cells obtained in Preparation Example 1 were mixed in DMEM medium, and the cells were treated with the mitochondria and then further cultured for 18 hours (FIG. 4). […]
Immunohistochemical analysis for each sample was performed as follows. […] The nucleus was stained using DAPI (4,6-diamidino-2-phenylindole), and analysis of differences in fluorescence intensity was performed using a fluorescence microscope.

SMILES: COC(=O)c1ccc2c(c1)NC(=O)/C2=C(\Nc1ccc(N(C)C(=O)CN2CCN(C)CC2)cc1)c1ccccc1 [nintedanib]
- expression of CTGF gene induced by TGF-β [1]: weakly inhibited or hardly inhibited
- expression of alpha actin smooth muscle (α-SMA) gene induced by TGF-β [1]: weakly inhibited or hardly inhibited
- expression of CTGF protein induced by TGF-β [2]: hardly inhibited
- expression of CTGF gene induced by TGF-β [3]: weakly inhibited or hardly inhibited
- expression of NOX-4 gene induced by TGF-β [3]: weakly inhibited or hardly inhibited
- expression of alpha actin smooth muscle (α-SMA) gene induced by TGF-β [3]: weakly inhibited or hardly inhibited

SMILES: Cc1ccc(=O)n(-c2ccccc2)c1 [pirfenidone]
- expression of collagen 1A induced by TGF-β (fluorescence intensity) [4]: weakly inhibited or hardly inhibited
- expression of fibronectin induced by TGF-β (fluorescence intensity) [4]: weakly inhibited or hardly inhibited
